Results published in patent US10085973B2, “Pharmaceutical composition containing a compound having a thrombopoietin receptor agonistic activity” (Shionogi & Co., Ltd., priority 2012, dated 2018).
Converted amounts (≈) assume the structure as drawn. Where two headings read alike, the source gives them in different places.

Legend:
Type in all cases: in vivo, human
[1] = PK model from phase 1 trial in healthy male adults (plasma concentration)
Description: (§1) Using the plasma concentration of the drug and the platelet count data of 54 cases obtained in phase 1 trial carried out in Japan to healthy male adults, a PK/PD model was constructed that can describe pharmacokinetics and a profile of a platelet count. The PK model describing pharmacokinetics was a three-compartment model including three compartments in the absorption process in order to explain the delay in absorption. The PD model describing the relation between the plasma concentration and the profile of platelets counts was a model including five compartments in order to explain the maturation process of platelets. […] We assumed that the distributions of respective model parameters and the distributions of the residual errors of the models follow a log-normal distribution. Parameters were estimated by using the first order conditional estimation method with interaction in a software NONMEM (version VI, level 2.0).

platelet count = assay: PD model from phase 1 trial in healthy male adults (profile of platelet count); conditions: for EC50: Homo sapiens, Platelet, read-out: EC50 (sigmoid Emax model), mean
Description: as §1

[2] = test system: patients with thrombocytopenia caused by chronic liver disease; assay: Example 2 Test Example 1: repeated oral administration before percutaneous liver ablation with discontinuation criteria
Description: To patients with thrombocytopenia caused by chronic liver disease, lusutrombopag as a pretreatment of percutaneous liver ablation was orally administered repeatedly for 7 days while applying the discontinuation criteria designed in Example 1 and profile of the platelet count was studied. In the present Example, the term “ablation” refers to radiofrequency ablation.
Patients with thrombocytopenia caused by chronic liver disease who are scheduled to undergo percutaneous liver ablation.
Patients who meet the following inclusion criteria are included. • 1) Age: 20 years of age or older (at the time of signing informed consent); • 2) Patients who themselves can give a consent in writing; • 3) Patients who have a complication or a history of chronic liver disease caused by hepatitis B or C virus; • 4) Patients who are scheduled to undergo percutaneous liver ablation for primary liver cancer; • 5) Patients having a platelet count which is less than 5×10^4/μL at the time of screening; • 6) Patients whose ECOG* Performance Status of Grade is 0 to 1; and • 7) Patients who can practice contraception from entry to the end of observation. (Exclusion Criteria)
Patients who meet the following criteria are excluded. • 1) Patients who underwent splenectomy; • 2) Patients who have a complication presenting thrombocytopenia; • 3) Patients who underwent liver transplant; • 4) Degree of hepatic disorder classified as the Child-Pugh class of C; • 5) Hepatic encephalopathy uncontrolled by medicaments; • 6) Ascites uncontrolled by medicaments; • 7) Patients who have a complication of malignant tumor other than primary liver cancer; • 8) Patients who have a complication or a history of thrombosis or thrombotic disease; • 9) Patients who have absence of hepatopetal blood flow in the portal vein; • 10) Patients who have a complication or a history of disease with hemorrhage risk; • 11) Patients who received a therapeutic agent that affects a platelet count or underwent a therapy that affects a platelet count within 90 days before registry; • 12) Patients who received a blood product (excluding erythrocyte product) within 14 days before registry; or • 13) Patients who previously received a TPO receptor agonist. (Drugs which are Prohibited, Limited or Allowed for Coadministration During the Trial)
In each allocated group, lusutrombopag is orally administered repeatedly once daily for 7 days. After patients are monitored on day 8, they undergo percutaneous liver ablation before day 13 from initiation of administration. They are monitored until about day 30 after initiation of administration.
Lusutrombopag is orally administered repeatedly once daily for 7 days. On day 1, the drug is administered at the time of visit. On day 3 to day 7 (day 5 to day 7 for the group of 2.0 mg administration), the drug shall be administered after checking the platelet count measured on the same day. Administration of lusutrombopag shall be discontinued when the platelet count reaches to the following criteria (administration discontinuating criteria) in a clinical examination after administration of the investigational drug.
Administration discontinuating criteria: when the platelet count has increased by 2×10^4/μL or more from the platelet count before initiation of administration and the platelet count has reached to 5×10^4/μL or higher.
As the platelet count before initiation of administration, the platelet count determined within 7 days before initiation of administration was used.
Daily dose was any one of 2.0, 2.5, 3.0 and 4.0 mg of lusutrombopag.
Proportion of patients who have a platelet count on day 8 after initiation of administration that increased by 2×10^4/μL or more from the platelet count before initiation of administration and reached to 5×10^4/μL or higher. […]

**Q.** With CCCCCCO[C@@H](C)c1cccc(-c2csc(NC(=O)c3cc(Cl)c(/C=C(\C)C(=O)O)c(Cl)c3)n2)c1OC [lusutrombopag, (E)-3-[2,6-dichloro-4-[4-[3-[(S)-1-hexyloxyethyl]-2-methoxyphenyl]-thiazol-2-ylcarbamoyl]-phenyl]-2-methylacrylic acid] as the compound, how does the “CL (apparent total clearance), mean” value [1] read?
**A.** 0.776 L/h

**Q.** What about the “Intra-individual variability (PK model, plasma concentration)” value [1] of the same compound?
**A.** 12.1%

**Q.** What about the “Q3/F (inter-compartmental clearance), mean” value [1] of the same compound?
**A.** 0.946 L/h

**Q.** What about the “Q4/F (inter-compartmental clearance), mean” value [1] of the same compound?
**A.** 0.0262 L/h

**Q.** And the “V3/F (volume of distribution of peripheral compartment), mean” value [1]?
**A.** 6.28 L

**Q.** What about the “V4/F (volume of distribution of peripheral compartment), mean” value [1] of the same compound?
**A.** 2.71 L

**Q.** And the “ka (transfer rate constant from absorption compartments to central compartment), mean” value (“ka” for short) ([1]; Fasting + solution)?
**A.** 0.563 h⁻¹

**Q.** And the “ktr (inter-absorption-compartmental transfer rate constant), mean” value (“ktr” for short) ([1]; Fasting + solution)?
**A.** 4.19 h⁻¹

**Q.** And the “ka” value ([1]; Postprandial + solution)?
**A.** 0.285 h⁻¹

**Q.** And the “ktr” value ([1]; Postprandial + solution)?
**A.** 2.15 h⁻¹

**Q.** And the “ka” value ([1]; Postprandial + tablet)?
**A.** 0.854 h⁻¹

**Q.** What about the “ktr” value ([1]; Postprandial + tablet) of the same compound?
**A.** 1.38 h⁻¹

**Q.** What about the Vd/F ([1]; male, human, plasma, oral, × (1 + (BW − 63) × 0.0172), BW body weight kg, read-out: V2/F (volume of distribution of the central compartment), mean) of the same compound?
**A.** 15.9 L

**Q.** And the “Emax (sigmoid Emax model), mean” value (platelet count)?
**A.** 3.52

**Q.** And the “kdeg (elimination rate constant from the platelet compartment), mean” value (platelet count)?
**A.** 1.61e-06 s⁻¹

**Q.** What about the “km (inter-PD-compartmental transfer rate constant), mean” value (platelet count) of the same compound?
**A.** 0.0394 h⁻¹

**Q.** And the “r (sigmoid Emax model), mean” value (platelet count)?
**A.** 2.03

**Q.** And the EC50 (platelet count; 50 mg/dose)?
**A.** 0.0216 mg/L (≈ 0.0365 µM)

**Q.** What about the EC50 (platelet count; <50 mg/dose) of the same compound?
**A.** 0.0647 mg/L (≈ 0.109 µM)

**Q.** And the “Endpoint 2: Number of patients who had a platelet count during the trial that increased by 2 × 10^4/μL or more from the count before initiation of administration and reached to 5 × 10^4/μL or higher” value ([2]; 2.0 mg once daily, n = 12)?
**A.** 9

**Q.** What about the “Number of patients to whom administration was discontinued according to the administration discontinuating criteria” value ([2]; 2.0 mg once daily, n = 12) of the same compound?
**A.** 3

**Q.** And the “Number of patients who received platelet transfusion” value ([2]; 2.0 mg once daily, n = 12)?
**A.** 2

**Q.** And the “Endpoint 2: Number of patients who had a platelet count during the trial that increased by 2 × 10^4/μL or more from the count before initiation of administration and reached to 5 × 10^4/μL or higher” value ([2]; 2.5 mg once daily, n = 6)?
**A.** 4

**Q.** What about the “Number of patients to whom administration was discontinued according to the administration discontinuating criteria” value ([2]; 2.5 mg once daily, n = 6) of the same compound?
**A.** 3

**Q.** And the “Number of patients who received platelet transfusion” value ([2]; 2.5 mg once daily, n = 6)?
**A.** 1

**Q.** What about the “Endpoint 2: Number of patients who had a platelet count during the trial that increased by 2 × 10^4/μL or more from the count before initiation of administration and reached to 5 × 10^4/μL or higher” value ([2]; 3.0 mg once daily, n = 7) of the same compound?
**A.** 6

**Q.** And the “Number of patients to whom administration was discontinued according to the administration discontinuating criteria” value ([2]; 3.0 mg once daily, n = 7)?
**A.** 0

**Q.** And the “Number of patients who received platelet transfusion” value ([2]; 3.0 mg once daily, n = 7)?
**A.** 1

**Q.** What about the “Endpoint 2: Number of patients who had a platelet count during the trial that increased by 2 × 10^4/μL or more from the count before initiation of administration and reached to 5 × 10^4/μL or higher” value ([2]; 4.0 mg once daily, n = 8) of the same compound?
**A.** 7

**Q.** What about the “Number of patients to whom administration was discontinued according to the administration discontinuating criteria” value ([2]; 4.0 mg once daily, n = 8) of the same compound?
**A.** 2

**Q.** What about the “Number of patients who received platelet transfusion” value ([2]; 4.0 mg once daily, n = 8) of the same compound?
**A.** 1

**Q.** And the “efficacy at each dose” value ([2]; all doses (2.0, 2.5, 3.0 and 4.0 mg))?
**A.** all doses showed the efficacy

**Q.** And the “patients who had a platelet count of higher than 20×10^4/μL during the observation period” value ([2]; daily dose 2.0, 2.5, 3.0 and 4.0 mg)?
**A.** None

**Q.** What about the “maximum platelet count of patients to whom administration was discontinued according to the criteria” value ([2]; groups of daily dose 2 mg, 2.5 mg and 4.0 mg, vs patients who received the drug for 7 days) of the same compound?
**A.** lower than that of patients who received the drug for 7 days
